Test results: ChEMBL document CHEMBL4002561, “Discovery of resveratrol derivatives as novel LSD1 inhibitors: Design, synthesis and their biological evaluation” (Eur J Med Chem, 2017)
Active and inactive are the calls of the source. The calls are words filed in the database; no cut-off is given here.

Key:
MGC-803 = assay: Effect on LSD1 expression in human MGC803 cells up to 2.5 uM after 5 days by DAPI staining based immunofluorescence assay; type: functional, cell-based
[1] = molecular target: Lysine-specific histone demethylase 1A (Homo sapiens, UniProt O60341)
Description: Inhibition of recombinant full length LSD1 (unknown origin) expressed in Escherichia coli BL21 (DE) using H3K4me2 substrate by fluorescence assay

N/C(=N\O)c1cccc(/C=C/c2cc(O)c(O)cc2Br)c1
Activity (MGC-803): inactive

N/C(=N\O)c1ccc(/C=C/c2cc(O)c(O)cc2Br)cc1
Activity (MGC-803): inactive

Oc1ccc(/C=C/c2cc(O)cc(O)c2)cc1 [RESVERATROL]
IC50 [1]: 10.2 µM
